Measured values reported in the Deep4Chem optical property database.

Assay: photoluminescence quantum yield (fraction); solvent given as SMILES

## CC(C)c1cccc(C(C)C)c1N1C(=O)c2cc(Cl)c3c4c(Cl)cc5c6c(cc(Cl)c(c7c(Cl)cc(c2c37)C1=O)c64)C(=O)N(c1c(C(C)C)cccc1C(C)C)C5=O
In Cc1ccccc1
  photoluminescence quantum yield: 0.95

## CC(C)(C)c1ccc2c(c1)c1cc(C(C)(C)C)ccc1n2-c1ccc(S(=O)(=O)c2ccc(-n3c4ccc(C(C)(C)C)cc4c4cc(C(C)(C)C)ccc43)cc2)cc1
In Cc1ccccc1
  photoluminescence quantum yield: 0.69

## CC(C)[Si](C#Cc1ccc(C#C[Si](C(C)C)(C(C)C)C(C)C)c2nc3c(ccc4cc5ccccc5cc43)nc12)(C(C)C)C(C)C
In CCCCCC
  photoluminescence quantum yield: 0.37

## COCCC1(CCOC)c2cc(-c3ccc(OC)cc3)ccc2-c2ccc(-c3ccc4c(c3)C(CCOC)(CCOC)c3cc(-c5ccc(OC)cc5)ccc3-4)cc21
In CN(C)C=O
  photoluminescence quantum yield: 0.95

## COc1ccc2c(c1)CCC1=C(C#Cc3ccc(Cl)cc3)O[B-](F)(F)[O+]=C12
In ClCCl
  photoluminescence quantum yield: 0.72

## CCOC(=O)c1sc(-c2ccc(-c3cc(-c4ccc(C(C)(C)C)cc4)c(C(=O)OCC)s3)s2)cc1-c1ccc(C(C)(C)C)cc1
In ClCCl
  photoluminescence quantum yield: 0.15

## O=c1[nH]c(=O)c2nc3ccccc3nc2[nH]1
In CC#N
  photoluminescence quantum yield: 0.009

## c1cc2ccc3ccc4cc3c2cc1c1ccc2c(c1)c1cc(ccc1[C@]13OCCO[C@]21OCCO3)c1ccc2c(c1)c1cc4ccc1[C@]13OCCO[C@]21OCCO3
In Cc1ccccc1
  photoluminescence quantum yield: 0.63

## COC(=O)c1cc(=O)n(C)c2cc(-c3cc(OC)c(OC)c(OC)c3)sc12
In CC#N
  photoluminescence quantum yield: 0.38
In ClCCl
  photoluminescence quantum yield: 0.53

## CN(c1ccccc1)c1ccc(/C=C/c2ccccc2)cc1
In CC#N
  photoluminescence quantum yield: 0.31
In CCCCCC
  photoluminescence quantum yield: 0.64

## C1=[N+](c2ccccc2)[B-]2(Oc3c1ccc1c4c(ccc31)C=[N+](c1ccccc1)[B-]1(O4)c3ccccc3Oc3ccccc31)c1ccccc1Oc1ccccc12
In Cc1ccccc1
  photoluminescence quantum yield: 0.77
In ClCCl
  photoluminescence quantum yield: 0.81

## C#CCOc1ccc(/C=C/C2=[N+]3C(=C(c4ccc(N(CC)CC)cc4)c4c(C)cc(C)n4[B-]3(F)F)C(C)=C2)cc1
In CO
  photoluminescence quantum yield: 0.84

## c1ccc(-c2c3ccccc3c(-c3cncnc3)c3ccccc23)cc1
In CCO
  photoluminescence quantum yield: 0.4
In ClCCl
  photoluminescence quantum yield: 0.51

## CCCCCCN(CCCCCC)c1ccc(C#Cc2c(F)c(F)c(F)c(F)c2F)cc1
In CO
  photoluminescence quantum yield: 0.0014
In ClCCl
  photoluminescence quantum yield: 0.026

## O=c1oc2ccccc2c(O)c1C(CC(O)c1ccc(-c2ccc(Br)cc2)cc1)c1ccccc1 (stereo not given)
In CC#N
  photoluminescence quantum yield: 0.06
In CCO
  photoluminescence quantum yield: 0.058
In CO
  photoluminescence quantum yield: 0.034
In O
  photoluminescence quantum yield: 0.017

## CCc1c(C)c2n(c1C)[B-](F)(F)[N+]1=C(NCc3ccc(OC)cc3)C=CC1=C2C
In CC#N
  photoluminescence quantum yield: 0.65
In CCCCCC
  photoluminescence quantum yield: 0.73
In CCOC(C)=O
  photoluminescence quantum yield: 0.59
In CO
  photoluminescence quantum yield: 0.59
In ClCCl
  photoluminescence quantum yield: 0.61

## COc1ccc2oc(-c3cc4cc(OC)ccc4oc3=O)cc2c1
In CS(C)=O
  photoluminescence quantum yield: 0.16

## CC(C)(C)c1ccc2c(c1)[nH]c1c3[nH]c4cc(C(C)(C)C)ccc4c3c3nsnc3c21
In CN(C)C=O
  photoluminescence quantum yield: 0.09
In Cc1ccccc1
  photoluminescence quantum yield: 0.11
In ClCCl
  photoluminescence quantum yield: 0.12

## Clc1ccc(-c2nc3ccccc3c3cc4ccccn4c23)s1
In CS(C)=O
  photoluminescence quantum yield: 0.11

## N#Cc1ccccc1N1c2ccccc2C(c2ccccc2)(c2ccccc2)c2ccccc21
In Cc1ccccc1
  photoluminescence quantum yield: 0.33

## Cc1ccc(/C=C/c2nc(-c3cccc([N+](=O)[O-])c3)[nH]c2/C=C/c2ccc(C)cc2)cc1
In ClCCl
  photoluminescence quantum yield: 0

## c1csc(-c2ccc3c4ccc(-c5cccs5)cc4n(-c4cccs4)c3c2)c1
In ClCCl
  photoluminescence quantum yield: 0.21

## CCCCCCn1c2ccccc2c2cc3c4cc5c6ccccc6n(CCCCCC)c5cc4c4cc5c(C)cc(=O)oc5cc4c3cc21
In ClC(Cl)Cl
  photoluminescence quantum yield: 0.12

## CCCC(=O)c1c(OCOC)c(OCOC)c(C(=O)CCC)c2c1OCO2
In CC#N
  photoluminescence quantum yield: 0.41

## F[Si](c1ccccc1)(c1ccccc1)c1cccc2ccccc12
In C1CCOC1
  photoluminescence quantum yield: 0.14

## FC(F)(F)c1ccc(-c2nnc(-c3cc(-c4nnc(-c5ccc(C(F)(F)F)cc5)o4)c(-n4c5ccccc5c5ccccc54)cc3-n3c4ccccc4c4ccccc43)o2)cc1
In Cc1ccccc1
  photoluminescence quantum yield: 0.095
In O=P(c1ccccc1)(c1ccccc1)c1ccccc1Oc1ccccc1P(=O)(c1ccccc1)c1ccccc1
  photoluminescence quantum yield: 0.698

## CC[N+]1(CC)CN2C(C)=CC(C)=C(C(=O)[O-])C2=N1
In CN(C)C=O
  photoluminescence quantum yield: 0.105
In O
  photoluminescence quantum yield: 0.783

## CCCCCCN1C(=O)c2cccc3c(-c4ccc(-c5cc(-c6ccc(OC)cc6)n(-c6ccccc6)n5)s4)ccc(c23)C1=O
In ClCCl
  photoluminescence quantum yield: 0.38

## C[Si](C)(C)[Si](C)(C)c1cccc2cc3ccccc3cc12
In C1CCCCC1
  photoluminescence quantum yield: 0.38
In CC#N
  photoluminescence quantum yield: 0.16

## C=Cc1cccc(OC)c1
In C1CCCCC1
  photoluminescence quantum yield: 0.32
In CC#N
  photoluminescence quantum yield: 0.28

## COc1ccc(C2=CC(c3cc(OC)cc(OC)c3)=[O+][B-](F)(F)O2)cc1
In CC#N
  photoluminescence quantum yield: 0.02
In CC(C)=O
  photoluminescence quantum yield: 0.04
In CCCCCC
  photoluminescence quantum yield: 0.25
In Cc1ccccc1
  photoluminescence quantum yield: 0.19
In ClCCl
  photoluminescence quantum yield: 0.08

## C(#Cc1nc2ccccc2s1)c1ccc(N(c2ccccc2)c2ccccc2)cc1
In Cc1ccccc1
  photoluminescence quantum yield: 0.62

## CCN(CC)c1ccc2n1[B-](F)(F)[N+]1=CC(/C=C/C(=O)OC(C)(C)C)=CC1=C2c1c(C)cc(C)cc1C
In ClCCl
  photoluminescence quantum yield: 0.26

## COc1cc(C2=CC(c3ccccc3)=C(c3ccccc3)C2)cc(OC)c1OC
In ClCCl
  photoluminescence quantum yield: 0.0137

## N#Cc1cc2ccc(O)cc2oc1=N
In C1CCOC1
  photoluminescence quantum yield: 0.0262
In CC#N
  photoluminescence quantum yield: 0.0086
In CCOC(C)=O
  photoluminescence quantum yield: 0.072
In CS(C)=O
  photoluminescence quantum yield: 0.0022
In ClC(Cl)Cl
  photoluminescence quantum yield: 0.0342

## Cc1ccc2nc3[nH]c(=O)[nH]c(=O)c3nc2c1C
In CC#N
  photoluminescence quantum yield: 0.041

## O=S1(=O)c2ccccc2-c2cc(-c3c4ccccc4cc4ccccc34)ccc21
In C1CCCCC1
  photoluminescence quantum yield: 0.36
In CC#N
  photoluminescence quantum yield: 0.14
In ClCCl
  photoluminescence quantum yield: 0.24

## Cc1c(C)c(B(c2c(C)c(C)c(N3c4ccccc4Oc4ccccc43)c(C)c2C)c2c(C)c(C)c(N3c4ccccc4Oc4ccccc43)c(C)c2C)c(C)c(C)c1C#N
In c1ccc([Si](c2ccccc2)(c2ccc(-n3c4ccccc4c4ccccc43)cc2)c2ccc(-n3c4ccccc4c4ccccc43)cc2)cc1
  photoluminescence quantum yield: 0.75

## Cc1nc2cccc(-c3nc4ccccc4[nH]3)c2c(=O)[nH]1
In CN(C)C=O
  photoluminescence quantum yield: 0.088

## CC(C)[Si]1(C(C)C)c2cc(C=C(C#N)C#N)ccc2-c2ccc(N(C)C)cc21
In C1CCCCC1
  photoluminescence quantum yield: 0.08
In CC#N
  photoluminescence quantum yield: 0.32
In CCO
  photoluminescence quantum yield: 0.16
In CCOCC
  photoluminescence quantum yield: 0.56
In CS(C)=O
  photoluminescence quantum yield: 0.23
In ClCCl
  photoluminescence quantum yield: 0.56
In c1ccccc1
  photoluminescence quantum yield: 0.36

## CC1(C)CC[N+]2=c3c(cc4c(c31)Oc1cc3c(cc1C=4c1ccccc1C(=O)O)C(c1ccccc1C(=O)O)=c1cc4c5c(c1O3)C(C)(C)CC[N+]=5CCC4)CCC2
In ClC(Cl)Cl
  photoluminescence quantum yield: 0.55

## CN(C)c1ccc(-c2ccc(-c3ccc(N(C)C)cc3)c3nc(-c4ccccc4)c(-c4ccccc4)nc23)cc1
In ClC(Cl)Cl
  photoluminescence quantum yield: 0.3

## C(#Cc1cccc2cc(-c3ccccc3)c3cc(-c4cc[b-]5c(c4)c(-c4ccccc4)cc4cccc(C#Cc6ccccc6)[n+]54)cc[b-]3[n+]12)c1ccccc1
In C1CCCCC1
  photoluminescence quantum yield: 0.02

## CCn1c2ccccc2c2cc(/C=C/c3cccc[n+]3CCCS(=O)(=O)[O-])ccc21
In C1CCOC1
  photoluminescence quantum yield: 0.09
In CC#N
  photoluminescence quantum yield: 0.03
In CC(C)=O
  photoluminescence quantum yield: 0.03
In Cc1ccccc1
  photoluminescence quantum yield: 0.06

## CN(C)c1ccc(/C=C/c2nc3ccc(N(C)C)cc3oc2=O)cc1
In C1CCCCC1
  photoluminescence quantum yield: 0.57
In C1COCCO1
  photoluminescence quantum yield: 0.59
In CC#N
  photoluminescence quantum yield: 0.21
In CC(C)=O
  photoluminescence quantum yield: 0.36
In CC(O)CO
  photoluminescence quantum yield: 0.024
In CCCCCCC
  photoluminescence quantum yield: 0.56
In CCO
  photoluminescence quantum yield: 0.016
In CCOC(C)=O
  photoluminescence quantum yield: 0.52
In CN(C)C=O
  photoluminescence quantum yield: 0.22
In CS(C)=O
  photoluminescence quantum yield: 0.04
In Cc1ccccc1
  photoluminescence quantum yield: 0.57
In ClC(Cl)Cl
  photoluminescence quantum yield: 0.52
In ClCCl
  photoluminescence quantum yield: 0.55
In OCC(O)CO
  photoluminescence quantum yield: 0.019

## N#Cc1c(N2CCCCC2)cc(-c2ccc(-c3ccccc3)cc2)c2c1CCc1ccccc1-2
In C1CCOC1
  photoluminescence quantum yield: 0.38

## Cc1ccc(OCc2cc(=O)oc3c2ccc2ccccc23)cc1
In C1CCOC1
  photoluminescence quantum yield: 0.0561
In C1COCCO1
  photoluminescence quantum yield: 0.0665
In CC#N
  photoluminescence quantum yield: 0.0506
In CC(C)=O
  photoluminescence quantum yield: 0.0465
In CCCCO
  photoluminescence quantum yield: 0.0333
In CCCO
  photoluminescence quantum yield: 0.0312
In CCO
  photoluminescence quantum yield: 0.028
In CCOC(C)=O
  photoluminescence quantum yield: 0.0471
In CN(C)C=O
  photoluminescence quantum yield: 0.0576
In CO
  photoluminescence quantum yield: 0.0265
In Cc1ccccc1
  photoluminescence quantum yield: 0.0798
In ClCCl
  photoluminescence quantum yield: 0.0584

## COc1ccc2oc(=N)c(C#N)cc2c1
In ClCCl
  photoluminescence quantum yield: 0.062

## CCCCCCN1C(=O)C(c2ccc(-n3c4ccccc4c4ccccc43)cc2)=C(c2ccc(-n3c4ccccc4c4ccccc43)cc2)C1=O
In ClC(Cl)Cl
  photoluminescence quantum yield: 0.42
In c1ccc2c(c1)c1ccccc1n2-c1ccc(-c2ccc(-n3c4ccccc4c4ccccc43)cc2)cc1
  photoluminescence quantum yield: 0.66

## Cc1cc2cc(C)c3c4ccccc4[nH]c3c2o1
In ClCCl
  photoluminescence quantum yield: 0.2

## F[B-]1(F)n2c(-c3ccccc3)cc(-c3ccccc3)c2C(c2ccccc2)=C2C(c3ccccc3)=CC(c3ccccc3)=[N+]21
In C1CCOC1
  photoluminescence quantum yield: 0.31

## N#Cc1ccc(Oc2ccc3c4c(cccc24)C(=O)N(CCO)C3=O)cc1
In ClC(Cl)Cl
  photoluminescence quantum yield: 0.55

## N#CC(C#N)=Cc1ccc2c(c1)c1cc(C=C(C#N)C#N)ccc1n2-c1cccc2ccccc12
In ClCCl
  photoluminescence quantum yield: 0.07
